Data on eleven compounds can be found in ChEMBL document CHEMBL1132735, “Synthesis and biological evaluation of L- and D-configuration 1,3-dioxolane 5-azacytosine and 6-azathymine nucleosides” (Bioorg Med Chem Lett, 2000).

One test concerns Vero. Description: Concentration required to inhibit 50% of host cell replication in Vero cell used against HSV-1 and HSV-2 studies. Format: functional, cell-based. Particulars: Chlorocebus sabaeus.
The next test deals with HepG2. Briefly: Concentration required to inhibit 50% of host cell replication in human hepatoma (2.2.15) cells used against HBV studies. It counts as functional, cell-based.
The next test has as its system Human alphaherpesvirus 2. Description: Concentration required to inhibit 50% of HSV-2 replication. Format: functional, organism-based.
Another test concerns Hepatitis B virus. Briefly: Concentration required to inhibit 50% of Hepatitis B virus replication. It counts as functional, organism-based.
In test [1] the test system is Human immunodeficiency virus 1. Briefly: Concentration required to inhibit 50% of HIV-IIIB virus replication. It counts as functional, organism-based.
The test system of a further test is P388. Briefly: Concentration required to inhibit 50% of P388 cell replication, tested up to a concentration of 100 uM. Format: functional, cell-based. Particulars: Mus musculus.
The subject of another test is Human alphaherpesvirus 1. Briefly: Concentration required to inhibit 50% of HSV-1 replication. It counts as functional, organism-based.
Another test has as its system L1210. Description: Concentration required to inhibit 50% of leukemia L1210 cell replication, tested up to a concentration of 100 uM. The following applies: Mus musculus. Format: functional, cell-based.
A further test has as its system B16-F10. Briefly: Concentration required to inhibit 50% of B16F10 cell replication, tested up to a concentration of 100 uM. Format: functional, cell-based. The following applies: Mus musculus.
In the next test the test system is CCRF-CEM. Briefly: Concentration required to inhibit 50% of CCRF-CEM cell replication, tested up to a concentration of 100 uM. Format: functional, cell-based. Particulars: Homo sapiens.
The next test relates to MT2. Description: Concentration required to inhibit 50% of host cell replication in MT-2 cells used against HIV studies. The following applies: Homo sapiens. Format: functional, cell-based.

A value given as a limit tells only on which side of the number the result lay.

`Cc1nn(C[C@@H]2CO[C@H](CO)O2)c(=O)[nH]c1=O`: the IC50 with Vero is above 50 µM; in the test on HepG2 it was above 50 µM; in the test with MT2, above 100 µM. Further, the EC50 in the test with Human alphaherpesvirus 2 is above 50 µM; in the test on Hepatitis B virus, above 20 µM; in [1], above 100 µM; with P388, above 100 µM; with Human alphaherpesvirus 1, above 50 µM; in the test with L1210 it was above 100 µM. Also, the EC50 in the test with B16-F10 and in the test with CCRF-CEM was above 100 µM each time.
Take `Nc1ncn(C[C@H]2CO[C@@H](CO)O2)c(=O)n1`: the IC50 worked out at 30 µM with Vero, 27 µM in the test on HepG2 and 32 µM in the test with MT2. Also, the EC50 is above 50 µM in the test on Human alphaherpesvirus 2; 6.3 µM in the test on Hepatitis B virus; 1 µM in test [1]; 70 µM in the test on P388; above 50 µM in the test on Human alphaherpesvirus 1; 90 µM with L1210. The EC50 in the test on B16-F10 was found to be 60 µM; in the test on CCRF-CEM, 80 µM.
Turning to `Cc1nn(C[C@@H]2CO[C@@H](CO)O2)c(=O)[nH]c1=O`, the half-inhibitory concentration (IC50) with Vero is above 50 µM; with HepG2 it was above 50 µM; in the test with MT2, above 100 µM. For the same compound, the EC50 in the test with Human alphaherpesvirus 2 is above 50 µM; in the test on Hepatitis B virus it was above 20 µM; in [1], above 100 µM; with P388, above 100 µM; in the test on Human alphaherpesvirus 1, above 50 µM; with L1210, above 100 µM. The EC50 in the test on B16-F10 and in the test with CCRF-CEM was above 100 µM throughout.
As for `Nc1ncn(C[C@@H]2CO[C@@H](CO)O2)c(=O)n1`, the IC50 came to 28 µM in the test with Vero, 25 µM with HepG2 and 27 µM in the test with MT2. For the same compound, the EC50 was above 50 µM with Human alphaherpesvirus 2; above 20 µM in the test on Hepatitis B virus; above 100 µM in [1]; 70 µM in the test on P388; above 50 µM with Human alphaherpesvirus 1; 80 µM with L1210. Moreover, the EC50 with B16-F10 stood at 80 µM; in the test with CCRF-CEM, 70 µM.
Consider `Nc1ncn(C[C@@H]2CO[C@H](CO)O2)c(=O)n1`, for which the IC50 with Vero was found to be 12 µM; in the test with HepG2 it was 17 µM; in the test on MT2 it was 17 µM. Besides, the EC50 in the test on Human alphaherpesvirus 2 was above 50 µM; with Hepatitis B virus it was 0.6 µM; in test [1], 5 µM; in the test on P388 it was 90 µM; with Human alphaherpesvirus 1, 32 µM; in the test on L1210, 70 µM. The figures for the EC50 in the test with B16-F10 and in the test with CCRF-CEM were 70 µM and 20 µM, respectively.
On to `Cc1nn(C[C@H]2CO[C@@H](CO)O2)c(=O)[nH]c1=O`, for which the figures for the IC50 with Vero, in the test with HepG2 and in the test with MT2 were above 50 µM, above 50 µM and above 100 µM, respectively. Besides, the EC50 with Human alphaherpesvirus 2 was above 50 µM; in the test on Hepatitis B virus, above 20 µM; in test [1], above 100 µM; in the test on P388, above 100 µM; in the test with Human alphaherpesvirus 1, above 50 µM; with L1210, above 100 µM. For the same compound, the EC50 in the test with B16-F10 and in the test with CCRF-CEM was above 100 µM in each case.
As to `Cc1nn(C[C@H]2CO[C@H](CO)O2)c(=O)[nH]c1=O`, the IC50 in the test on Vero was above 50 µM; with HepG2, above 50 µM; with MT2, above 100 µM. The EC50 in the test with Human alphaherpesvirus 2 is above 50 µM; in the test on Hepatitis B virus it was above 20 µM; in test [1] it was above 100 µM; in the test on P388, above 100 µM; in the test with Human alphaherpesvirus 1, above 50 µM; with L1210, above 100 µM. In addition, the EC50 in the test on B16-F10 and with CCRF-CEM was above 100 µM each time.
Consider `Nc1ncn(C[C@H]2CO[C@H](CO)O2)c(=O)n1`, for which the IC50 with Vero came to 31 µM; in the test on HepG2, 17 µM; in the test on MT2, 18 µM. Also, the EC50 with Human alphaherpesvirus 2 was above 50 µM; in the test on Hepatitis B virus, 6.5 µM; in test [1], above 100 µM; in the test on P388 it was 65 µM; with Human alphaherpesvirus 1 it was above 50 µM; with L1210, 70 µM. Also, the EC50 was found to be 70 µM in the test on B16-F10 and 30 µM with CCRF-CEM.
In the test with Vero, `Nc1nc2c(ncn2COCCO)c(=O)[nH]1` [ACYCLOVIR] registered a concentration for half-maximal inhibition (IC50) above 50 µM. The EC50 in the test on Human alphaherpesvirus 2 worked out at 35 µM; in the test on Human alphaherpesvirus 1, 23 µM.
Take `Cc1cn([C@H]2C=C[C@@H](CO)O2)c(=O)[nH]c1=O` [STAVUDINE]: the EC50 with Hepatitis B virus was above 20 µM; in [1] it was 0.6 µM. In the test with MT2, this compound displayed an IC50 above 100 µM.
As to `Nc1ccn([C@H]2CC[C@@H](CO)O2)c(=O)n1` [ZALCITABINE], the IC50 with HepG2 is above 37 µM. In the test with Hepatitis B virus, this compound came in with an EC50 of 2.3 µM.
